These are literature values, as cited in patent US12662501B2, “Transcriptome In Vivo Analysis (TIVA) and Transcriptome In Situ Analysis (TISA)” (The Trustees of the University of Pennsylvania, priority 2014, dated 2026).

The conditions of data set [1]: for Eop: 1MLCT Ru→bpy(π1*) transition; for λmax: 1MLCT band.

With `C=CCn1cnnc1` [4-ally1-1,2,4-triazole], in data set [1], the Eop was 21190 cm⁻¹ and the λmax is 472 nm.
For the compound `CC(=O)c1ccncc1.CC(=O)c1ccncc1.[Ru+2].c1ccc(-c2ccccn2)nc1.c1ccc(-c2ccccn2)nc1` [(4-AcPyr)2], in data set [1], the Eop is 22620 cm⁻¹ and the λmax is 442 nm.
In the case of `CCSC.CCSC.[Ru+2].c1ccc(-c2ccccn2)nc1.c1ccc(-c2ccccn2)nc1` [(MeSEt)2], in data set [1], the Eop is 23697 cm⁻¹ and the λmax was 422 nm.
Consider `CSc1ccccc1.CSc1ccccc1.[Ru+2].c1ccc(-c2ccccn2)nc1.c1ccc(-c2ccccn2)nc1` [(MeSPh)2], for which, in data set [1], the Eop is 24752 cm⁻¹ and the λmax is on record as 404 nm.
Regarding `Cn1ccnc1.Cn1ccnc1.[Ru+2].c1ccc(-c2ccccn2)nc1.c1ccc(-c2ccccn2)nc1` [(N-MeIm)2], in data set [1], the Eop is 20700 cm⁻¹ and the λmax was 483 nm.
For `N.N.[Ru+2].c1ccc(-c2ccccn2)nc1.c1ccc(-c2ccccn2)nc1` [(NH3)2], in data set [1], the Eop is 20410 cm⁻¹ and the λmax was 490 nm.
As to `[Ru+2].c1ccc(-c2ccccn2)nc1.c1ccc(-c2ccccn2)nc1.c1ccc(P(c2ccccc2)c2ccccc2)cc1.c1ccc(P(c2ccccc2)c2ccccc2)cc1` [(PPh3)2], in data set [1], the Eop was 23870 cm⁻¹ and the λmax was 419 nm.
Take `[Ru+2].c1ccc(-c2ccccn2)nc1.c1ccc(-c2ccccn2)nc1.c1ccncc1.c1ccncc1` [(Pyr)2]: in data set [1], the Eop was 21980 cm⁻¹ and the λmax is on record as 455 nm.
For the compound `F[P-](F)(F)(F)(F)F.NCCCC(=O)[O-].[Ru+2].c1ccc(-c2ccccn2)nc1.c1ccc(-c2ccccn2)nc1.c1ccc(P(c2ccccc2)c2ccccc2)cc1` [RuBi-caged GABA], under “1P, 424 nm”, the ε was 6400 M⁻¹ cm⁻¹. Also, the Φ (RuBi-caged GABA) is recorded as 0.2. In addition, the εΦ (RuBi-caged GABA, 1P, 424 nm) was 1280.
